Test results as given in patent publication US9220705B2, “Method of treating colorectal cancer” (priority 2013, dated 2015).
Several values for one entry are separate records, joined by “and”; a condition that tells them apart may be missing. Equal entries are not always repeated. Marks after values point to notes of the source that are not given here.

Key:
[1] = system: LoVo MDR multidrug resistant colon carcinoma subline; assay: MTT cytotoxicity assay, cross-resistance profile; type: cell-based, human; settings: for R.F. (resistance factor): IC50 LoVo-MDR / IC50 LoVo; for IC50: LoVo-MDR, 72 h, MTT
Description: (§1) Human breast (MCF-7) and colon (HCT-15, DDL1, SW480 and CaCo-2) carcinoma cell lines along with melanoma (A375) were obtained from the American Type Culture Collection (ATCC, Rockville, Md.). A431 are human cervical carcinoma cells kindly provided by Prof. F. Zunino (Molecular Pharmacology Unit, Experimental Oncology and Molecular Medicine, Istituto Nazionale dei Tumori, Milan, Italy). […] G. Marverti (Dept. of Biomedical Science, University of Modena, Italy). LoVo human colon-carcinoma cell line and its multidrug-resistant sublime (LoVo MDR) were kindly provided by Prof F. Maj one (Department of Biology of Padova University, Italy). […] Cell lines were maintained in the logarithmic phase at 37° C. in a 5% carbon dioxide atmosphere using the following culture media containing 10% fetal calf serum (Euroclone, Milan, Italy), antibiotics (50 units mL^−1 penicillin and 50 μg mL^−1 streptomycin), and 2 mM L-glutamine in: i) RPMI-1640 medium (Euroclone) for MCF-7, HCT-15, A431, DLD 1, 2008, and C13* cells; ii) F-12 HAM'S (Sigma Chemical Co.) for LoVo, LoVo MDR, and LoVo-OXP cells; iii) DMEM for A375 and SW 480 cells; and iv) MEM for CaCo-2 cells.
(§2) The growth inhibitory effect towards tumor cell lines was evaluated by means of the MTT (3-(4,5-dimethylthiazol-2-yl)-2,5-diphenyltetrazolium bromide) assay (Alley, M. C., et al., Cancer Res. 1988, 48, 589-601).
(§3) Briefly, depending upon the growth characteristics of the cell line, 3-8×10^3 cells well^−1, were seeded in 96-well microplates in growth medium (100 μL) and then incubated at 37° C. in a 5% carbon dioxide atmosphere. After 24 h, the medium was removed and replaced with a fresh one containing the compound to be studied, at the appropriate concentration, dissolved in 0.9% sodium chloride solution just before use. Triplicate cultures were established for each treatment. After 72 h, each well was treated with […] of a 5 mg mL^−1 MTT saline solution and, after 5 h of incubation, 100 μL of a sodium dodecylsulfate (SDS) solution in 0.01 M HCl were added. After an overnight incubation, the inhibition of cell growth induced by the tested complexes was determined by measuring the absorbance of each well at 570 nm using a BioRad 680 microplate reader. Mean absorbance for each drug dose was expressed as percentage of the control and plotted vs. drug concentration. Dose-response curves were fitted and IC50 values were calculated with four parameter logistic model (4PL).
(§4) A LoVo cell line retaining a multidrug resistance phenotype was also considered (LoVo MDR). Cross-resistance profiles were evaluated by means of the resistance factor (RF), which is defined as the ratio between the IC50 value for the resistant cells and that arising from the sensitive cells (Table 2).
In Table 2 are also reported the results obtained in a multidrug resistant (MDR) colon carcinoma subline, LoVo MDR, in which the resistance to doxorubicin, a drug belonging to the MDR spectrum, is associated with an overexpression of multi-specific drug transporters, such as the 170 kDa P-glycoprotein (P-gp) (Wersinger, C., et al., Amino Acids 2000, 19, 667-685). It is well known that acquired MDR, whereby cells become refractory to multiple drugs, poses most important challenge to the success of anticancer chemotherapy.

[2] = system: 2008/C13*, LoVo/LoVo-OXP, LoVo MDR; assay: MTT cytotoxicity, comparison over the Table 2 cell lines; type: cell-based, human; settings: 2008 ovarian and LoVo colon sensitive cells
Protocol: as §3, with “After” for “Briefly, depending upon the growth characteristics of the cell line, 3-8×10^3 cells well^−1, were seeded in 96-well microplates in growth medium (100 μL) and then incubated at 37° C. in a 5% carbon dioxide atmosphere. After”
as §4

LoVo colon cancer cells = assay: MTT cytotoxicity assay, cross-resistance profile; type: cell-based, human; settings: 72 h
Description: Human breast (MCF-7) and colon (HCT-15, DDL1, SW480 and CaCo-2) carcinoma cell lines along with melanoma (A375) were obtained from the American Type Culture Collection (ATCC, Rockville, Md.). A431 are human cervical carcinoma cells kindly provided by Prof. F. Zunino (Molecular Pharmacology Unit, Experimental Oncology and Molecular Medicine, Istituto Nazionale dei Tumori, Milan, Italy). […] G. Marverti (Dept. of Biomedical Science, University of Modena, Italy). LoVo human colon-carcinoma cell line and its multidrug-resistant sublime (LoVo MDR) were kindly provided by Prof F. Maj one (Department of Biology of Padova University, Italy).
as §2, §3, §4

SW480 = assay: MTT cytotoxicity assay, 72 h; type: cell-based, human; settings: SW480, colon
Description: as §1, §2, §3
(§5) Compound 1 was prepared for the first time almost twenty years ago however, until now, it had been tested (both in vitro and in vivo) only in a limited number of tumor cell lines (Hoeschele, J. D., et al., J. Med. Chem. 1994, 37, 2630-2636 and Shamsuddin, S., et al., J. Inorg. Biochem. 1996, 61, 291-301). The Pt(II) and Pt(IV) complexes containing isomeric forms of diaminocyclohexane, [PtCl2(cis-1,4-DACHA](1), [PtCl2(1R,2R-DACH)] (2), [Pt(OXA)(cis-1,4-DACH)] (3), cis,trans,cis-[Pt^IVCl2(OH)2(cis-1,4-DACH)] (4), cis,trans,cis-[Pt^IVCl2(DCA)2(cis-1,4-DACH)] (5), [Pt(CBDCA)(cis-1,4-DACH)] (6), cis,trans,cis-[Pt^IV(OXA)(OH)2(cis-1,4-DACH)] (7), and cis,trans,cis-[Pt^IV(OXA)(DCA)2(cis-1,4-DACH)] (8) were evaluated for their cytotoxic activity towards a panel of human tumor cell lines including cervical (A431), breast (MCF-7), cancers along with a melanoma (A375) and 4 different colon cancer cell lines corresponding to different stages of the disease progression (HCT-15, SW480, CaCo-2, DLD-1). The cytotoxicity was evaluated by means of the MTT test for 72 h treatment with increasing concentrations of the tested compounds.

HCT-15 = assay: MTT cytotoxicity assay, 72 h; type: cell-based, human; settings: HCT-15, colon
Description: as §1, §2, §3, §5

A375 = assay: MTT cytotoxicity assay, 72 h; type: cell-based, human; settings: A375, skin
Description: as §1, §2, §3, §5

DLD-1 = assay: MTT cytotoxicity assay, 72 h; type: cell-based, human; settings: DLD-1, colon
Description: as §1, §2, §3, §5

A431 = assay: MTT cytotoxicity assay, 72 h; type: cell-based, human; settings: A431, cervix
Description: as §1, §2, §3, §5

MCF-7 = assay: MTT cytotoxicity assay, 72 h; type: cell-based, human; settings: MCF-7, breast
Description: as §1, §2, §3, §5

[3] = system: LoVo-OXP oxaliplatin resistant colon cancer cells; assay: MTT cytotoxicity assay, cross-resistance profile; type: cell-based, human; settings: for R.F. (resistance factor): IC50 LoVo-OXP / IC50 LoVo, cross-resistance with oxaliplatin; for IC50: LoVo-OXP, 72 h, MTT
Description: as §1, §2, §3, §4

[4] = system: C13* cisplatin resistant ovarian cancer cells; assay: MTT cytotoxicity assay, cross-resistance profile; type: cell-based, human; settings: for IC50: C13*, 72 h, MTT; for R.F. (resistance factor): IC50 C13* / IC50 2008, cross-resistance with cisplatin
Description: as §1, §2, §3, §4

[5] = system: 2008 ovarian cancer cells; assay: MTT cytotoxicity assay, cross-resistance profile; type: cell-based, human; settings: 72 h
Description: as §1, §2, §3, §4

[6] = system: Lewis lung carcinoma (LLC); assay: In vivo anticancer activity toward Lewis lung carcinoma; set-up: species or system C57BL mice; settings: daily dose i.p. 1.5 mg kg^−1 from day 9; day 15
Protocol: All studies involving animal testing were carried out in accordance with the ethical guidelines for animal research adopted by the University of Padua, acknowledging the Italian regulation and the European Directive 86/609/EEC as to animal welfare and protection and the related codes of practice. The mice were purchased from Charles River, Italy, and housed in steel cages under controlled environmental conditions (constant temperature, humidity, and 12 h dark/light cycle) and alimented with commercial standard feed and tap water ad libitum. Animals were observed daily, and body weight and food intake recorded. The Lewis lung carcinoma (LLC) cell line was purchased from ECACC, UK. The LLC cell line was maintained in D-MEM (Euroclone) supplemented with 10% heat-inactivated FBS (Euroclone), 10 mM L-glutamine, 100 U mL^−1 penicillin, and 100 μg mL^−1 streptomycin in a 5% CO2 air incubator at 37° C.
The Lewis lung carcinoma (LLC) was implanted i.m. as a 2×10^6 cell inoculum into the right hind leg of 8-week old male and female C57BL mice (24±3 g body weight). […] At day 15, animals were sacrificed, the legs were amputated at the proximal end of the femur, and the inhibition of tumor growth was determined according to the difference in weight of the tumor-bearing leg and the healthy leg of the animals expressed as % referred to the control animals. Body weight was measured every two days and was taken as a parameter for systemic toxicity.
All the values are the means±S.D. of not less than three measurements. Multiple comparisons were made by Tukey-Kramer test (**p<0.01; *p or °p<0.05).
The in vivo antitumor activity of compound 1 was evaluated in a model of solid tumor, the syngeneic murine Lewis lung carcinoma (LLC). […] For the assessment of the adverse side effects, changes in body weights of tumor-bearing mice were monitored daily (FIG. 3).

| Compound | R.F. (resistance factor) [1] | IC50 [1] | cytotoxic activity towards sensitive lines compared with reference drugs [2] | IC50 (LoVo colon cancer cells) | IC50 (SW480) | IC50 (HCT-15) | IC50 (A375) | IC50 (DLD-1) | IC50 (A431) | IC50 (MCF-7) | R.F. (resistance factor) [3] | IC50 [3] | IC50 [4] | R.F. (resistance factor) [4] | IC50 [5] | Average tumor weight (mean ± SD, g) [6] | Inhibition of tumor growth (%) [6] |
| --- | --- | --- | --- | --- | --- | --- | --- | --- | --- | --- | --- | --- | --- | --- | --- | --- | --- |
| O=C1[O][Pt]2([OH])([OH])([NH]C3CCC(CC3)[NH]2)[O]C1=O [Compound 7, (OC-6-33)-[ethanedioato(2)-O,O′](cis-1,4-cyclohexanediamine-N,N′)dihydroxyplatinum] | 1.1 | 69.4 ± 4.83 µM | less effective than oxaliplatin and cisplatin | 61.2 ± 5.51 µM | 69.4 ± 11.5 µM | 72.1 ± 4.74 µM | 75.1 ± 6.54 µM | 82.2 ± 5.54 µM | 59.5 ± 3.64 µM | 112 ± 9.52 µM | 1.1 | 66.9 ± 5.12 µM | 78.7 ± 4.6 µM | 1.3 | 59.5 ± 3.64 µM | – | – |
| O=C1[O][Pt]2([O]C(=O)C(Cl)Cl)([O]C(=O)C(Cl)Cl)([NH]C3CCC(CC3)[NH]2)[O]C1=O [Compound 8, (OC-6-33)-[ethanedioato(2)-O,O′](cis-1,4-cyclohexanediamine-N,N′)bisdichloroacetateplatinum] | 1.3 | 11.9 ± 3.33 µM | lower than cisplatin and oxaliplatin in ovarian sensitive cancer cells, similar than cisplatin against colon sensitive cells | 9.08 ± 2.16 µM | 10.6 ± 2.01 µM | 13.7 ± 3.81 µM | 4.99 ± 1.15 µM | 8.26 ± 3.24 µM | 7.41 ± 2.11 µM | 12.6 ± 2.47 µM | 1.2 | 11.1 ± 3.05 µM | 9.12 ± 2.79 µM | 0.8 | 11.1 ± 3.28 µM | – | – |
| N.N.[Cl][Pt][Cl] [cisplatin, cis-diamminedichloroplatinum(II), reference compound] | 1.1 | 7.53 ± 0.98 µM | – | 7.63 ± 1.53 µM | 7.67 ± 1.34 µM | 15.5 ± 2.48 µM | 2.06 ± 1.01 µM | 8.01 ± 2.22 µM | 1.96 ± 0.84 µM | 8.37 ± 2.96 µM | 1.7 | 13.1 ± 2.47 µM | 23.7 ± 2.42 µM | 10.5 | 2.26 ± 1.06 µM | 0.199 ± 0.10** g | 75% and 74.66% |
